Data: article PMC13335744, “Functional Analysis of Ligand‐Gated Chloride Channels in a Cnidarian Sheds Light on the Evolution of Inhibitory Signaling” (Advanced Science, 2026)

Columns and labels:
nvpLGIC‐1 – nvpLGIC‐7 = test: Ligand screen by two-electrode voltage clamp, nvpLGIC‐1 – nvpLGIC‐7 expressed individually in Xenopus oocytes; assay type: cell-based, Nematostella vectensis; details: for evoked currents: 1 µM–1 mM
Description: Approximately 2–5 ng of cRNA of nvpLGICs were injected into Xenopus laevis oocytes of stages V and VI. Injected oocytes were incubated at 19 °C in oocyte Ringer's solution (OR‐2) containing (in mM): 82.5 NaCl, 2.5 KCl, 1.0 Na2HPO4,1.0 MgCl2, 1.0 CaCl2, 5.0 HEPES, 0.5 g l^−1 PVP, 1000 U l^−1 penicillin, and 10 mg l^−1 streptomycin. pH was adjusted to 7.3 using NaOH.
(§1) For electrophysiology, whole‐oocyte currents were measured two days after injection using a two‐electrode voltage clamp (TEVC) set‐up with a TurboTec 03X amplifier (npi electronic GmbH, Tamm, Germany) and a pump‐driven solution exchange system combined with the oocyte testing carousel (OTC), controlled by the interface OTC‐20. For nvGluCl‐1, the His‐tagged version was functionally characterized. Standard bath solution contained (in mM): 140 NaCl, 10 HEPES, 1.8 CaCl2, and 1.0 MgCl2, pH was adjusted to 7.4 using NaOH. Solution exchange was controlled using the CellWorks 5.1.1 software (npi electronic). Data were sampled at 0.1–1 kHz and filtered at 20 Hz. Holding potential was −70 mV.

nematocytes = tested on: nematocytes; parameters: method as in PMID 32452384; details: cited from earlier work
nvGluCl‐2 K229 mutants = test: Two-electrode voltage clamp of oocytes expressing nvGluCl‐2 with substitutions of K229 (K229T, K229R, K229M); assay type: cell-based, Nematostella vectensis
Text: Full‐length DNA sequences of […] subunits were identified and cloned based on bulk and single cell transcriptomes of N. vectensis. nvpLGIC‐1 – nvpLGIC‐4 were cloned in oocyte expression vector pRSSP6009 [72]. nvpLGIC‐5 and […] DNA sequences were synthesized and cloned in the pCDNA3.1 (‐) vector (BioCat GmbH). They were then subcloned in the vector pRSSP6009 (nvpLGIC‐6) or pRSSP 6013 (nvpLGIC‐5). Site‐directed mutations were introduced in nvGluCl‐2 to create the mutants at position K229, using the Quick‐change mutagenesis method. nvpLGIC‐1 – nvpLGIC‐6 subunits were fused with His6‐tags at their C‐terminus using PCR. His6‐tags were incorporated just before the stop codon without changing any other amino acids. All final constructs were sequenced for confirmation. […]
For electrophysiology, whole‐oocyte currents were measured two days after injection using a two‐electrode voltage clamp (TEVC) set‐up with a TurboTec 03X amplifier (npi electronic GmbH, Tamm, Germany) and a pump‐driven solution exchange system combined with the oocyte testing carousel (OTC), controlled by the interface OTC‐20. […]

nvGluCl‐2 (nvpLGIC‐2) = test: Two-electrode voltage clamp of Xenopus oocytes expressing nvGluCl‐2 (nvpLGIC‐2); assay type: cell-based, Nematostella vectensis
Description: (§2) Approximately 2–5 ng of cRNA of nvpLGICs were injected into Xenopus laevis oocytes of stages V and VI.
as §1, with “For nvGluCl‐1, the His‐tagged version was functionally characterized.” left out
(§3) Electrophysiological data were analyzed offline, and current amplitudes were assessed using CellWorks Reader 6.2.2 (npi electronic GmbH, Tamm, Germany). Concentration‐response relationships were normalized to the currents obtained with a saturating concentration (I/Imax ). The mean of normalized amplitudes was plotted as a function of ligand concentrations.
(§4) Desensitization kinetics and recovery from desensitization were fitted to a mono‐exponential function: (2) y=yo+Ae^−x/τ where yo is the offset, A is the amplitude, and τ is the time constant.

nvGluCl‐3 (nvpLGIC‐6) = test: Two-electrode voltage clamp of Xenopus oocytes expressing nvGluCl‐3 (nvpLGIC‐6); assay type: cell-based, Nematostella vectensis
Description: as §2
as §1, with “For nvGluCl‐1, the His‐tagged version was functionally characterized.” left out
as §3, §4

nvGluCl‐1 (nvpLGIC‐1) = test: Two-electrode voltage clamp of Xenopus oocytes expressing nvGluCl‐1 (nvpLGIC‐1); assay type: cell-based, Nematostella vectensis
Description: as §2
as §1, with “For nvGluCl‐1, the His‐tagged version was functionally characterized.” left out
as §3, §4

[1] = biological target: nvpLGIC-1 (Nematostella vectensis pentameric ligand-gated ion channel subunit 1), C-terminal His6 (Nematostella vectensis); test: native gel or EMSA; blue native PAGE of C-terminally His-tagged receptors expressed in Xenopus laevis oocytes, solubilised with digitonin and purified under non-denaturing conditions on Ni-NTA; run native and partially denatured (SDS 1 h at 37°C; methods say LiDS) to count lower-order intermediates; surface pool detected by IR800 fluorescence, total pool by 35S phosphorimaging
[2] = biological target: nvpLGIC-3 (Nematostella vectensis pentameric ligand-gated ion channel subunit 3), C-terminal His6 (Nematostella vectensis); test: as above
[3] = biological target: nvpLGIC-5 (Nematostella vectensis pentameric ligand-gated ion channel subunit 5), C-terminal His6 (Nematostella vectensis); test: as above
[4] = biological target: the molecule itself; test: as above
[5] = also with a mix of nvpLGIC‐1 – nvpLGIC‐7, nvpLGIC‐7 not tested individually
[6] = at 500 µM glutamate, single exponential fit
[7] = read-out: EC50, half‐maximal activation, TEVC, holding potential −70 mV

Question: With `N[C@H](CO)C(=O)O` [D‐serine] as the molecule, how does the elicited currents (nvpLGIC‐1 – nvpLGIC‐7; 1 mM) read?
Answer: did not elicit currents

Question: Which elicited currents (nematocytes) does the source give for `NCCCC(=O)O` [GABA, γ‐aminobutyric acid] here?
Answer: neither Glu nor GABA elicit currents

Question: What about the evoked currents (nvpLGIC‐1 – nvpLGIC‐7) of the same molecule?
Answer: neither GABA nor glycine (1 µM–1 mM) evoked currents

Question: And the “activation of K229 mutant channels” value (nvGluCl‐2 K229 mutants)?
Answer: still not activated

Question: Which results are given for `CC(=O)OCC[N+](C)(C)C` [acetylcholine]?
Answer: elicited currents (nematocytes): elicits an inward Ca^2+ current; elicited currents (nvpLGIC‐1 – nvpLGIC‐7; 1 mM): did not elicit currents

Question: Which elicited currents (nvpLGIC‐1 – nvpLGIC‐7; [5]) does the source give for `N[C@@H](CC(=O)O)C(=O)O` [aspartate] here?
Answer: did not elicit currents

Question: Which evoked currents (nvGluCl‐2 (nvpLGIC‐2); 100 µM) does the source give for `N[C@@H](CCC(=O)O)C(=O)O` [glutamate] here?
Answer: evoked large currents

Question: And the “recovery from desensitization, τrecovery” value (nvGluCl‐2 (nvpLGIC‐2); 30 s desensitizing pulse of 100 µM glutamate)?
Answer: 31 s

Question: And the “time constant of desensitization, τdes” value (nvGluCl‐2 (nvpLGIC‐2); [6])?
Answer: 111 ± 47 ms

Question: And the EC50 (nvGluCl‐2 (nvpLGIC‐2); [7])?
Answer: 102 µM

Question: And the evoked currents (nvGluCl‐3 (nvpLGIC‐6); 100 µM)?
Answer: evoked large currents

Question: What about the “time constant of desensitization, τdes” value (nvGluCl‐3 (nvpLGIC‐6); [6]) of the same molecule?
Answer: 161 ± 93 ms

Question: What about the “recovery from desensitization, τrecovery” value (nvGluCl‐3 (nvpLGIC‐6); desensitization by 30 µM glutamate for 30 s) of the same molecule?
Answer: 38 s

Question: What about the EC50 (nvGluCl‐3 (nvpLGIC‐6); [7]) of the same molecule?
Answer: 7 µM

Question: What about the elicited currents (nematocytes) of the same molecule?
Answer: neither Glu nor GABA elicit currents

Question: And the “response to glutamate of K229T, K229R, K229M mutants” value (nvGluCl‐2 K229 mutants; 10 mM glutamate)?
Answer: almost completely abolished the response

Question: And the evoked currents (nvGluCl‐1 (nvpLGIC‐1); 100 µM)?
Answer: evoked large currents

Question: And the “time constant of desensitization, τdes” value (nvGluCl‐1 (nvpLGIC‐1); [6])?
Answer: 26 ± 3 ms

Question: And the EC50 (nvGluCl‐1 (nvpLGIC‐1); read-out: EC50, half‐maximal activation, TEVC, holding potential −70 mV, His‐tagged version)?
Answer: 16 µM

Question: Which elicited currents (nvpLGIC‐1 – nvpLGIC‐7; [5]) does the source give for `NC(=O)CC[C@H](N)C(=O)O` [glutamine] here?
Answer: did not elicit currents

Question: Which evoked currents (nvpLGIC‐1 – nvpLGIC‐7) does the source give for `NCC(=O)O` [glycine] here?
Answer: neither GABA nor glycine (1 µM–1 mM) evoked currents

Question: With `NCCc1c[nH]cn1` [histamine] as the molecule, how does the elicited currents (nvpLGIC‐1 – nvpLGIC‐7; [5]) read?
Answer: did not elicit currents

Question: With `NCCc1c[nH]c2ccc(O)cc12` [serotonin] as the molecule, how does the elicited currents (nvpLGIC‐1 – nvpLGIC‐7; 1 mM) read?
Answer: did not elicit currents

Question: For `NCCC(=O)O` [β‐alanine], which elicited currents (nvpLGIC‐1 – nvpLGIC‐7; [5]) is on record?
Answer: did not elicit currents

Question: For “nvpLGIC-1 (Nematostella vectensis pentameric ligand-gated ion channel subunit 1), C-terminal His6 (receptor)”, which stoichiometry N [1] is on record?
Answer: 5

Question: Which stoichiometry N [2] does the source give for “nvpLGIC-3 (Nematostella vectensis pentameric ligand-gated ion channel subunit 3), C-terminal His6 (receptor)” here?
Answer: 5

Question: Which stoichiometry N [3] does the source give for “nvpLGIC-5 (Nematostella vectensis pentameric ligand-gated ion channel subunit 5), C-terminal His6 (receptor)” here?
Answer: 5

Question: With picrotoxin [PTx] as the molecule, how does the IC50 (nvGluCl‐2 (nvpLGIC‐2); 100 µM glutamate, read-out: apparent IC50, inhibition of glutamate-evoked current) read?
Answer: ~10 µM

B1: human GABAA receptor β3 subunit (hGABRB3), His-tagged (receptor, UniProt P28472 26-473, looked up)
chain: QSVNDPGNMSFVKETVDKLLKGYDIRLRPDFGGPPVCVGMNIDIASIDMVSEVNMDYTLTMYFQQYWRDKRLAYSGIPLNLTLDNRVADQLWVPDTYFLNDKKSFVHGVTVKNRMIRLHPDGTVLYGLRITTTAACMMDLRRYPLDEQNCTLEIESYGYTTDDIEFYWRGGDKAVTGVERIELPQFSIVEHRLVSRNVVFATGAYPRLSLSFRLKRNIGYFILQTYMPSILITILSWVSFWINYDASAARVALGITTVLTMTTINTHLRETLPKIPYVKAIDMYLMGCFVFVFLALLEYAFVNYIFFGRGPQRQKKLAEKTAKAKNDRSKSESNRVDAHGNILLTSLEVHNEMNEVSGGIGDTRNSAISFDNSGIQYRKQSMPREGHGRFLGDRSLPHKKTHLRRRSSQLKIKIPDLTDVNAIDRWSRIVFPFTFSLFNLVYWLYYVN
modifications: metabolically labelled with [35S]methionine; surface pool labelled with the lysine-reactive dye IR800-NHS ester
notes: human GABAA receptor subunit β3 (GABRB3), full-length cDNA from the Harvard Plasmid Repository, subcloned into a Gateway-compatible pNKS2 vector; Positive control for homopentamer formation; also called human GABAA β3; human β3 receptor; source: Xenopus laevis oocytes, cRNA-injected; digitonin-solubilised, purified (Ni-NTA); not shown: His tag, C-terminal, kept
Question: With B1 as the molecule, how does the “stoichiometry N” value [4] read?
Answer: 5
